Assay results: US20020137929A1, “1 - (3-heterocyclylphenyl) isothiourea, -isourea, -guanidine and -amidine herbicidal agents” (Intellectual Property Department, BASF Aktiengesellschaft, priority 1998, published 2002)

Columns and labels:
[1] = test system: GLXMAW (Soybean, Williams); test: Preemergence herbicidal evaluation; type: in vivo, Glycine max, (L.) Merr. cv Williams; conditions: rated 4-5 weeks after treatment
Summary of the method: (§1)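 Sown cups got a single aqueous acetone spray of test compound (roughly 0.0156–0.500 kg/ha) before seedlings emerged. Evaluation, 4–5 weeks on, used a 0–9 visual scale covering plant stand, vigor, size, malformation, chlorosis and general appearance compared with controls.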

CASOB (Sicklepod) = test: Postemergence herbicidal evaluation; type: in vivo, Cassia obtusifolia
Summary of the method: (§2)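 Rate range approx. 0.0156–0.500 kg/ha. Foliar application at 40 psi to ~2-week seedlings; surfactant 0.5% TWEEN 20 in 50/50 acetone/water. Evaluation 4–5 wk post-treatment by 0–9 visual injury score, means of replicate tests.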

[2] = test system: TRZAWR (Wheat, Winter, cv Riband); test: Preemergence herbicidal evaluation; type: in vivo, Triticum aestivum; conditions: rated 4-5 weeks after treatment
Summary of the method: as §1

ORYSAT (Rice, Tebonnet) [3] = test: Preemergence herbicidal evaluation; type: in vivo, Oryza sativa, (L.) Tebonnet; conditions: rated 4-5 weeks after treatment
Summary of the method: as §1

ZEAMX (Corn, Field) = test: Preemergence herbicidal evaluation; type: in vivo, Zea mays; conditions: rated 4-5 weeks after treatment
Summary of the method: as §1

ORYSAT (Rice, Tebonnet) [4] = test: Postemergence herbicidal evaluation; type: in vivo, Oryza sativa, (L.) Tebonnet
Summary of the method: as §2

CYPIR (Rice Flatsedge) = test: Preemergence weed control under flooded paddy conditions; type: in vivo, Cyperus iria; conditions: rated 3-4 weeks after treatment
Summary of the method: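 First, seeds or propagules go into the top 0.5 cm of silt loam; next, water is held 1.5 to 3 cm over the soil; then compound (50/50 acetone/water) is pipetted into it at about 0.0313 to 0.500 kg/ha; finally plants are rated visually 0-9 after three to four weeks.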

[5] = test system: SAGPY (Arrowhead (Pygmaea)); test: as above; type: in vivo, Sagittaria pygmaea; conditions: rated 3-4 weeks after treatment
Summary of the method: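 Using flooded silt loam (water 1.5 to 3 cm deep), seeds sown in the top 0.5 cm were exposed preemergence to compound pipetted into the flood at about 0.0313 to 0.500 kg/ha. Effects were scored 0-9 by eye three to four weeks later.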

[6] = test system: CHEAL (Lambsquarters, Common); test: Postemergence herbicidal evaluation; type: in vivo, Chenopodium album
Summary of the method: as §2

CYPSE (Flatsedge) = test: Postemergence weed control under flooded paddy conditions; type: in vivo, Cyperus serotinus; conditions: postemergence weeds, 3-4 weeks after treatment
Summary of the method: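 Injury ratings (0–9 scale covering stand, vigor, malformation, size, chlorosis and overall appearance versus control) were made three to four weeks after treatment. Test material, about 0.0313 to 0.500 kg/ha a.i. in 50/50 v/v aqueous/acetone, was added to flood water 1.5 to 3 cm deep over 3 to 5 cm weeds and 1.5 to 2.5 leaf rice.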

SETVI (Foxtail, Green) = test: Preemergence herbicidal evaluation; type: in vivo, Setaria viridis; conditions: rated 4-5 weeks after treatment
Summary of the method: as §1

ECHCG (Barnyardgrass) = test: Postemergence herbicidal evaluation; type: in vivo, Echinochloa crus-galli
Summary of the method: as §2

GALAP (Galium) = test: Preemergence herbicidal evaluation; type: in vivo, Galium aparine; conditions: rated 4-5 weeks after treatment
Summary of the method: as §1

CCOC(=O)CN1C(=O)C(Cc2ccccc2OC)SC1=Nc1cc(-n2c(=O)cc(C(F)(F)F)n(C)c2=O)c(F)cc1Cl (stereo not drawn) [Compound 37, Ethyl 2-{{2-chloro-5-[3,6-dihydro-3-methyl-2,6-dioxo-4-(trifluoromethyl)-1(2H)-pyrimidinyl]-4-fluorophenyl}imino}-5-(o-methoxybenzyl)-4-oxo-3-thiazolidineacetate]
Preemergence herbicidal rating GLXMAW ([1]; rate 0.1250 kg/ha): 0.0 | Preemergence herbicidal rating GLXMAW ([1]; rate 0.2500 kg/ha): 0.0 | Postemergence herbicidal rating CASOB (CASOB (Sicklepod); Rate 0.0158 kg/ha): 0.0 | Postemergence herbicidal rating CASOB (CASOB (Sicklepod); Rate 0.0315 kg/ha): 0.0 | Postemergence herbicidal rating CASOB (CASOB (Sicklepod); Rate 0.0630 kg/ha): 0.0 | Preemergence herbicidal rating TRZAWR ([2]; rate 0.1250 kg/ha): 0.0 | Preemergence herbicidal rating TRZAWR ([2]; rate 0.2500 kg/ha): 0.0 | Preemergence herbicidal rating ORYSAT (ORYSAT (Rice, Tebonnet) [3]; rate 0.1250 kg/ha): 0.0 | Preemergence herbicidal rating ORYSAT (ORYSAT (Rice, Tebonnet) [3]; rate 0.2500 kg/ha): 0.0 | Preemergence herbicidal rating ZEAMX (ZEAMX (Corn, Field); rate 0.1250 kg/ha): 0.0 | Preemergence herbicidal rating ZEAMX (ZEAMX (Corn, Field); rate 0.2500 kg/ha): 0.0 | Postemergence herbicidal rating ORYSAT (ORYSAT (Rice, Tebonnet) [4]; Rate 0.0158 kg/ha): 0.5 | Postemergence herbicidal rating ORYSAT (ORYSAT (Rice, Tebonnet) [4]; Rate 0.0315 kg/ha): 1.0 | Postemergence herbicidal rating ORYSAT (ORYSAT (Rice, Tebonnet) [4]; Rate 0.0630 kg/ha): 1.5 | Herbicidal rating CYPIR (CYPIR (Rice Flatsedge); 0.0313 kg/ha): 0.0 | Herbicidal rating CYPIR (CYPIR (Rice Flatsedge); 0.0625 kg/ha): 0.0 | Herbicidal rating CYPIR (CYPIR (Rice Flatsedge); 0.1250 kg/ha): 0.0 | Herbicidal rating CYPIR (CYPIR (Rice Flatsedge); 0.2500 kg/ha): 0.0 | Herbicidal rating SAGPY ([5]; 0.0313 kg/ha): 0.0 | Herbicidal rating SAGPY ([5]; 0.0625 kg/ha): 0.0 | Herbicidal rating SAGPY ([5]; 0.1250 kg/ha): 0.0 | Herbicidal rating SAGPY ([5]; 0.2500 kg/ha): 3.0 | Postemergence herbicidal rating CHEAL ([6]; Rate 0.0158 kg/ha): 3.0 | Postemergence herbicidal rating CHEAL ([6]; Rate 0.0315 kg/ha): 3.0 | Postemergence herbicidal rating CHEAL ([6]; Rate 0.0630 kg/ha): 3.0 | Herbicidal rating CYPSE (CYPSE (Flatsedge); rate 0.0313 kg/ha): 0.0 | Herbicidal rating CYPSE (CYPSE (Flatsedge); rate 0.0625 kg/ha): 0.0 | Herbicidal rating CYPSE (CYPSE (Flatsedge); rate 0.1250 kg/ha): 0.0 | Herbicidal rating CYPSE (CYPSE (Flatsedge); rate 0.2500 kg/ha): 0.0 | Preemergence herbicidal rating SETVI (SETVI (Foxtail, Green); rate 0.1250 kg/ha): 0.0 | Preemergence herbicidal rating SETVI (SETVI (Foxtail, Green); rate 0.2500 kg/ha): 0.0 | Postemergence herbicidal rating ECHCG (ECHCG (Barnyardgrass); Rate 0.0158 kg/ha): 0.0 | Postemergence herbicidal rating ECHCG (ECHCG (Barnyardgrass); Rate 0.0315 kg/ha): 0.0 | Postemergence herbicidal rating ECHCG (ECHCG (Barnyardgrass); Rate 0.0630 kg/ha): 0.0 | Preemergence herbicidal rating GALAP (GALAP (Galium); rate 0.1250 kg/ha): 0.0 | Preemergence herbicidal rating GALAP (GALAP (Galium); rate 0.2500 kg/ha): 9.0
